Reference: patent US20100144758A1, “AZAINDOLE P2X3 AND P2X2/3 MODULATORS” (priority 2008, published 2010)

Experiments:
rat P2X3 receptor = target: T1, rat P2X3 receptor (Rattus norvegicus, UniProt P49654); test: P2X3 FLIPR (Fluorometric Imaging Plate Reader) assay; format: cell-based; conditions: CHO-K1 cells transfected with rat P2X3; agonist α,β-meATP 1 μM; Fluo-3 calcium fluorescence
T1 construct: expressed in transfected cells; host or cells: CHO-K1
T1 sequence (P49654 1-397): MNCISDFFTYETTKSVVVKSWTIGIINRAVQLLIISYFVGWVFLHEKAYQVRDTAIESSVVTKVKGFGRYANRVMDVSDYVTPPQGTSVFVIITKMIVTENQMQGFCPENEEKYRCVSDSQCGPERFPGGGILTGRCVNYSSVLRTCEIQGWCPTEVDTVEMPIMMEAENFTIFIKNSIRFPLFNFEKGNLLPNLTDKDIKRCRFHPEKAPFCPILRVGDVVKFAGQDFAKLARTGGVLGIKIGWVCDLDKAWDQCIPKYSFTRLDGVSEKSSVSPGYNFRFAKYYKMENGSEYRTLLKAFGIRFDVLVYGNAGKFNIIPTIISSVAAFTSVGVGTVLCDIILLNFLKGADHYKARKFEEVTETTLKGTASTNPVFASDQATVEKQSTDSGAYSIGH
Experimental: (§1) CHO-K1 cells were transfected with cloned rat P2X3 or human P2X2/3 receptor subunits and passaged in flasks. 18-24 hours before the FLIPR experiment, cells were released from their flasks, centrifuged, and resuspended in nutrient medium at 2.5×10^5 cells/ml. The cells were aliquoted into black-walled 96-well plates at a density of 50,000 cells/well and incubated overnight in 5% CO2 at 37° C. On the day of the experiment, cells were washed in FLIPR buffer (calcium- and magnesium-free Hank's balanced salt solution, 10 mM HEPES, 2 mM CaCl2, 2.5 mM probenecid; FB). Each well received 100 μl FB and 100 μl of the fluorescent dye Fluo-3 AM [2 μM final conc.]. […]
(§2) Test compounds (dissolved in DMSO at 10 mM and serially diluted with FB) or vehicle were added to each well (25 μl of a 4× solution) and allowed to equilibrate for 20 minutes at room temperature. The plates were then placed in the FLIPR and a baseline fluorescence measurement (excitation at 488 nm and emission at 510-570 nm) was obtained for 10 seconds before a 100 μl/well agonist or vehicle addition. […] Fluorescence was measured for an additional 2 minutes at 1 second intervals after agonist addition. A final addition of ionomycin (5 μM, final concentration) was made to each well of the FLIPR test plate to establish cell viability and maximum fluorescence of dye-bound cytosolic calcium. […]

human P2X2/3 receptor = target: T2, human P2X2/3 receptor (Homo sapiens, UniProt P56373+Q9UBL9); test: P2X2/3 FLIPR (Fluorometric Imaging Plate Reader) assay; format: cell-based; conditions: CHO-K1 cells transfected with human P2X2/3; agonist α,β-meATP 5 μM; Fluo-3 calcium fluorescence
T2 construct: expressed in transfected cells; host or cells: CHO-K1
T2 sequence (Q9UBL9 1-471): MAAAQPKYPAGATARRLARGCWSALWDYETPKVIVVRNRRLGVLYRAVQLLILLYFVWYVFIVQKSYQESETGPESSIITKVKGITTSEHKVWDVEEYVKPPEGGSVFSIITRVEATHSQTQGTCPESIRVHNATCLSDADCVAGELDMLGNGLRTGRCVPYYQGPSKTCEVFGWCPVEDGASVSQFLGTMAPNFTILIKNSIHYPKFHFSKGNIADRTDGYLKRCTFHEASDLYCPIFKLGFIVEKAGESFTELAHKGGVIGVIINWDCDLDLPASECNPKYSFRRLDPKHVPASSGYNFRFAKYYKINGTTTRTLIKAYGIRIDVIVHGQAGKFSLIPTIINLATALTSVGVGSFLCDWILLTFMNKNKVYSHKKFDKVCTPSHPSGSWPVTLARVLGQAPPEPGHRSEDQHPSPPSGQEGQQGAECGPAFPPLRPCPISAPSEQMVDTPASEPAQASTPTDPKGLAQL
T2 sequence (P56373 1-397): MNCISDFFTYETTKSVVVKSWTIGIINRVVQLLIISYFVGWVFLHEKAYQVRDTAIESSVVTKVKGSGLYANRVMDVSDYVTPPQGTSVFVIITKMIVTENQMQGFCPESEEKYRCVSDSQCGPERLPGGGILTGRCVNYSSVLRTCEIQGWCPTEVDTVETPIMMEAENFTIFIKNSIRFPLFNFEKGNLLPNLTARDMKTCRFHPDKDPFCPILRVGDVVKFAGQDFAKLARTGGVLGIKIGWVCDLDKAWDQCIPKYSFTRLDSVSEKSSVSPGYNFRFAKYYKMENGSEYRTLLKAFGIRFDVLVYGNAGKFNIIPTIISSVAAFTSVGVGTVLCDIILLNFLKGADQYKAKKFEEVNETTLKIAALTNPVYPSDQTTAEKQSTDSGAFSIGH
Experimental: as §1, §2

| IC50 (rat P2X3 receptor) | IC50 (human P2X2/3 receptor) | Compound |
| --- | --- | --- |
| ~309 nM |  | Cc1cccc(-n2cc(-c3ccc(F)cc3)c3c(NC4CCOCC4)ncnc32)c1 [Compound 11, [5-(4-Fluoro-phenyl)-7-m-tolyl-7H-pyrrolo[2,3-d]pyrimidin-4-yl]-(tetrahydro-pyran-4-yl)-amine] |
|  | ~501 nM | Cc1ccc(-n2cc(-c3ccccc3)c3c(N[C@H](C)CO)ncnc32)cc1Cl [Compound 12, (R)-2-[7-(3-Chloro-4-methyl-phenyl)-5-phenyl-7H-pyrrolo[2,3-d]pyrimidin-4-ylamino]-propan-1-ol] |
